Legend:
[1] = Cell viability assay (MTT) on normal mammary epithelial cells; assay type: cell-based; conditions: human, MCF-10A normal mammary gland epithelial cells, MCF-10A cells, four days
Experimental: To test the viability of new substances, the epithelial (MCF-10A) cell line of the normal human mammary gland was used. Compounds 8–17 were incubated for four days on MCF-10A cells before being tested for viability using the MTT assay. According to Table 1, none of the substances tested were cytotoxic, and cell viability at 50 µM was greater than 87% for the compounds tested.
The normal human mammary gland epithelial (MCF-10A) cell line was used to test the viability of new compounds [46, 47]. See Appendix SA (Supplementary File).
4.2. Biological evaluation
4.2.1. Cytotoxic activity using MTT Assay and evaluation of IC50
MTT assay was performed to investigate the effect of the synthesized compounds on mammary epithelial cells (MCF-10A). The cells were propagated in medium consisting of Ham's F-12 medium/ Dulbecco's modified Eagle's medium (DMEM) (1:1) supplemented with 10% foetal calf serum, 2 mM glutamine, insulin (10 μg/mL), hydrocortisone (500 ng/mL) and epidermal growth factor (20 ng/mL). Trypsin ethylenediamine tetra acetic acid (EDTA) was used to passage the cells after every 2-3 days. 96-well flat-bottomed cell culture plates were used to seed the cells at a […]
of 10^4 cells mL-1. The medium was aspirated from all the wells of culture plates after 24 h followed by the addition of synthesized compounds (in 200 μL medium to yield a final concentration of 0.1% (v/v) dimethyl sulfoxide) into individual wells of the plates. Four wells were designated to a single compound. The plates were allowed to incubate at 37°C for 96 h. Afterwards, the medium was aspirated and 3 -[4,5-dimethylthiazol-2-yl]-2,5-diphenyltetrazolium bromide (MTT) (0.4 mg/mL) in medium was added to each well and subsequent ly incubated for 3 h. The medium was aspirated and 150 μL dimethyl sulfoxide (DMSO) was added to each well. The plates were vortexed followed by the measurement of absorbance at 540 nm on a microplate reader. […]

caspase-8 = test: Caspase-8 level assay; assay type: cell-based, human; conditions: MCF-7 cells; for Caspase-8 Fold Change: versus untreated control
Experimental: (§1) Additionally, the effects of compounds 12 and 17 on the levels of caspase-8, Bax, and Bacl-2 in the MCF-7 cancer cell line and staurosporine as a control were examined. […]
The solution in the wells should change from blue to yellow. Read the absorbance of each well at 450 nm having blanked the plate reader against a chromogen blank composed of 100 μl each of Stabilized Chromogen and Stop Solution. Read the plate within 2 hours after adding the Stop Solution. Use a curve fitting software to generate the standard curve. A four-parameter algorithm provides the best standard curve fit. Read the concentrations for unknown samples and controls from the standard curve. Multiply value(s) obtained for sample(s) by the appropriate dilution factor to correct for the dilution in step 3. Samples producing signals greater than that of the highest standard should be diluted in Standard Diluent Buffer and reanalyzed.
4.2.4. Caspase-8 activation assay
Cells were obtained from American Type Culture Collection, cells were grown in RPMI 1640 containing 10% fetal bovine serum at 37°C, stimulated with the compounds to be tested for caspase8, and lysed with Cell Extraction Buffer. This lysate was diluted in Standard Diluent Buffer over the range of the assay and measured for human active caspase-8 content. (Cells are Plated in a density of 1.2 – 1.8 × 10,000 cells/well in a volume of 100µl complete growth medium + 100 ul of the tested compound per well in a 96-well plate for 24 hours before the enzyme assay for Tubulin.). The absorbance of each microwell was read on a spectro-photometer at 450 nm. A standard curve is prepared from 7human Caspase-8 standard dilutions and human Caspase-8 concentration determined. […]

Bcl-2 = Bcl-2 level assay; assay type: cell-based, human; conditions: MCF-7 cells; for Bcl-2 Fold Reduction: versus untreated control
Experimental: as §1
4.2.6. Bcl-2inhibition assay
Mix all reagents thoroughly without foaming before use. Wash the microwells twice with approximately 300 μL Wash Buffer per well with thorough aspiration of microwell contents between washes. Take caution not to scratch the surface of the microwells. After the last wash, empty the wells and tap microwell strips on absorbent pad or paper towel to remove excess Wash Buffer. Use the microwell strips immediately after washing or place upside down on a wet absorbent paper for not longer than 15 minutes. […] Add 100 μL of Sample […]
Diluent in duplicate to all standard wells and to the blank wells. Prepare standard (1:2 dilution) in duplicate ranging from 32 ng/mL to 0.5 ng/mL. Add 100 μL of Sample Diluent, in duplicate, to the blank wells. Add 80 μL of Sample Diluent, in duplicate, to the sample wells. Add 20 μL of each Sample, in duplicate, to the designated wells. Add 50 μL of diluted biotin-conjugate to all wells, including the blank wells. Cover with a plate cover and incubate at room temperature, on a microplate shaker at 100 rpm if available, for 2 hours. Remove plate cover and empty the wells.
Wash microwell strips 3 times as described in step 2. Add 100 μL of diluted Streptavidin-HRP to all wells, including the blank wells. Cover with a plate cover and incubate at room temperature, on a microplate shaker at 100 rpm if available, for 1 hour. Remove plate cover and empty the wells.
Wash microwell strips 3 times as described in step 2. Proceed to the next step. Pipette 100 μl of mixed TMB Substrate Solution to all wells, including the blanks. Incubate the microwell strips at room temperature (18° to 25°C) for about 15 minutes, if available on a rotator set at 100 rpm.
Avoid direct exposure to intense light. The point, at which the substrate reaction is stopped, is often determined by the ELISA reader. Many ELISA readers record absorbance only up to 2.0
O.D. Therefore, the color development within individual microwells must be watched by the person running the assay and the substrate reaction stopped before positive wells are no longer properly detectable. Stop the enzyme reaction by quickly pipetting 100 μL of Stop Solution into each well, including the blank wells. It is important that the Stop Solution is spread quickly and uniformly throughout the microwells to completely inactivate the enzyme. Results must be read immediately after the Stop Solution is added or within one hour if the microwell strips are stored at 2 - 8°C in the dark. Read absorbance of each microwell on a spectrophotometer using 450 nm as the primary wavelength.
4.3. Statistical analysis
Computerized Prism 5 program was used to statistically analyzed data using one-way ANOVA test followed by Tukey’s as post ANOVA for multiple comparison at P ≤.05. Data were presented

## COc1ccc(C2CC(c3ccc(OCC(=O)Nc4ccc(C5=NNC(c6ccc(OC)c(OC)c6)C5)cc4)cc3)=NN2)cc1 (centres unmarked) [Compound 12, 2-(4-(5-(4-Methoxyphenyl)-4,5-dihydro-1H-pyrazol-3-yl)phenoxy)-N-(4-(5-(3,4-dimethoxyphenyl)-4,5-dihydro-1H-pyrazol-3-yl)phenyl)acetamide]
[1]
  viability at 96 h, 50 µM: 90%
caspase-8
  Caspase-8 Conc: 1.87 ng/mL
  Caspase-8 Fold Change: 21
Bcl-2
  Bcl-2 Conc: 1.05 ng/mL
  Bcl-2 Fold Reduction: 5

## COc1ccc(C2CC(c3ccc(NC(=O)COc4ccc(C5=NNC(c6ccc(OC)c(OC)c6)C5)cc4)cc3)=NN2)cc1 (centres unmarked) [Compound 17, 2-(4-(5-(3,4-Dimethoxyphenyl)-4,5-dihydro-1H-pyrazol-3-yl)phenoxy)-N-(4-(5-(4-methoxyphenyl)-4,5-dihydro-1H-pyrazol-3-yl)phenyl)acetamide]
[1]
  viability at 96 h, 50 µM: 91%
caspase-8
  Caspase-8 Conc: 1.77 ng/mL
  Caspase-8 Fold Change: 20
Bcl-2
  Bcl-2 Conc: 1.15 ng/mL
  Bcl-2 Fold Reduction: 4

## CN[C@@H]1C[C@H]2O[C@@](C)([C@@H]1OC)n1c3ccccc3c3c4c(c5c6ccccc6n2c5c31)C(=O)NC4 [Staurosporine, reference compound]
caspase-8
  Caspase-8 Conc: 1.80 ng/mL
  Caspase-8 Fold Change: 20
Bcl-2
  Bcl-2 Conc: 1.10 ng/mL
  Bcl-2 Fold Reduction: 5
